The values below come from patent publication US20230000924A1, “COMPOSITIONS AND METHODS FOR GENERATION OF SINOATRIAL NODE-LIKE CELLS AND THEIR USE IN DRUG DISCOVERY” (Cornell University, priority 2019, published 2023).

Series [1] relates to SHOX2:GFP-; MHC6:mCherry+ cardiomyocytes. To be noted: 0.16 μM DOXO, 3 days, day 35 cardiomyocytes. On the procedure: (§1) FIG. 4. Pharmacogenetics and drug discovery for doxorubicin-mediated acute cell toxicity using hPSC-SAN cells. a, Relative cell toxicity of hESC-SAN and hESC-V cells upon DOXO treatment based on immunostaining of antibody against cleaved-caspase3. The fold change was calculated by dividing the percentage of cleaved caspase-3^+ cells in GFP^+ or mCherry^+ cells in the DOXO-treated condition by the percentage of cleaved caspase-3^+ cells in GFP^+ or mCherry^+ cells in the DMSO-treated condition (n=10); b, Sensitivity of day 30 hiPSC-SAN cells derived from 48 hiPSC lines upon DOXO treatment. 48 hiPSC lines were differentiated toward SAN-like cells and split into two equal samples, which were treated with 0.16 μM doxorubicin or DMSO for 3 days. The fold change was calculated by dividing the percentage of cleaved caspase-3^+ cells in ISL1^+ cells in the DOXO-treated condition by the percentage of cleaved caspase-3^+ cells in ISL1^+ cells in the DMSO-treated condition. […] Data are mean±s.e.m. Data were normalized to non-DOXO treated cells.

The test system of a further series is murine SAN. Briefly: Ex vivo murine atrial explants (SAN cell death, contraction rhythmicity). How it is done: FIG. 15. […] Quantification of contraction rhythmicity of explants was calculated by the COV as described above.
FIG. 16. […] Quantification of contraction rhythmicity of explants was calculated by the COV as described above.
Thus, we used an ex vivo model to document the direct effect of Doxorubicin and Physcion on the murine SAN. Whole, intact atrial explants were incubated with 1 μM doxorubicin or 1 uM doxorubicin+20 μM Physcion for 3 hrs.

The next series deals with HCN4+ SAN cells. To be noted: mouse, in vivo. On the procedure: FIG. 12. […] Immunofluorescence of intact atria isolated from Doxorubicin (two IP injections of 10 mg/kg at 3 day intervals) treated mice euthanized 9 days after initial treatment. Cell death (caspase 3, green) was analyzed in either myocardial (cTroponin, blue) or SAN tissue (HCN4, red).
FIG. 13. […] Contractions of intact atria isolated from vehicle (left panels) or Doxorubicin (right panels) treated mice (30 sec recordings;) x axis=[…]. […] Quantification of contraction rhythmicity of hearts was calculated by the coefficient of variance (COV)=std dev of peak to peak contraction time/average peak to peak contraction time.
C57BL/6 mice were treated with 20 mg/kg Doxorubicin by intraperitoneal injection.

Series [2] relates to SHOX2:GFP+ hPSC-SAN cells. Briefly: DOXO toxicity, cleaved caspase3+ cells, in hPSC-SAN cells. It counts as cell-based, human. To be noted: 0.16 μM DOXO, 3 days, day 35 pacemaker-like cells. How it is done: as §1
Series [3] has as its system hPSC-SAN cells differentiated from 48 distinct iPSC lines. Put plainly: DOXO sensitivity of hPSC-SAN cells differentiated from 48 iPSC lines (cleaved caspase-3 / ISL1 staining). It counts as cell-based, human. To be noted: 0.16 μM DOXO, 3 days. How it is done: FIG. 4. […] Data are mean±s.e.m. Data were normalized to non-DOXO treated cells.
To identify genetic variation that associates with the sensitivity of pacemaker cells to DOXO-induced toxicity, we performed an unbiased screen using a library of hPSC-SAN cells differentiated from 48 distinct iPSC lines. Cells differentiated for 35 days were treated with 0.16 μM DOXO for 3 days. Due to the lack of a robust antibody to SHOX2, an antibody recognizing ISL1 that is co-expressed with SHOX2:GFP (FIG. 2a), was used to identify hPSC-SAN cells that co-stain for cleaved caspase-3, as an assay for cytotoxicity. […] We identified 14 “high-sensitive” iPSC lines that generate hPSC-SAN cells displaying DOXO-induced apoptosis rates greater than 4-fold compared to DMSO-treated cells (FIG. 4b). To test if this platform can be applied toward in vitro pharmacogenomics, the iPSC clones were sequenced at several genomic regions harboring known SNPs associated with increased DOXO-mediated cardiotoxicity, including rs1056892, rs2229774 and rs885004 (in or near the genes CBR3, RARG and SLC28A3, respectively). 10 out of the 14 high-sensitive iPSC lines harbored one of these 3 SNPs (FIG. 4c). All 4 of the lines carrying the risk allele of rs1056892 generated hPSC-SAN cells with more than 4-fold increased toxicity. This is consistent with findings that CBR3 is expressed in heart tissue and functions for drug metabolism.

The subject of the next series is A549 xenograft tumors. Put plainly: A549 xenograft mouse model. It counts as in vivo. The following applies: IP once a week for two weeks, 4 mg/kg. On the procedure: FIG. 18. […] We tested the effects of Doxorubicin and Physcion using an A549 xenograft mouse model. Mice with A549 xenograft tumors were treated with vehicle, Doxorubicin, Physcion, or Doxorubicin plus Physcion. Doxorubicin and Physcion treatment was administered by IP injection once a week for two weeks, at a concentration of 4 mg/kg wt for both compounds.

The conditions of series [4]: cited from earlier work.
The subject of series [5] is GATA5-induced progenitors. Put plainly: qRT-PCR-based chemical screen in GATA5-induced murine ESC progenitors. It counts as cell-based. An excerpt: FIG. 5. Optimization of the protocol for the derivation of SAN-like cells from hPSCs a, Schematic representation of the murine differentiation protocol and qRT-PCR analysis for the expression levels of TBX3, TBX18 and SHOX2 following induction of GATA4, GATA5 or GATA6 at day 4. Fold change was normalized to level using the iGATA6 line; b, Heatmap illustration of the qPCR results of transcription-screen for TBX3, TBX18 and SHOX2; hit compounds (EGF inhibitors) from plates 1 and 3 are circled. c, The activity of tyrphostin AG490 and 2NP on the expression of TBX3, TBX18 and SHOX2; d, The activity of cucurbitacin (STAT3 inhibitor) on expression of MYH6; e, qRT-PCR analysis for TBX3, TBX18 and SHOX2 in S1+RA (left) and S1+cucurbitacin (right); f, The percentage of SHOX2:GFP^+ cells treated with different EGF inhibitors (left) and dose-response curve for effects of Tyrphostin AG490 on the percentage of SHOX2:GFP^+ cells. Fold changes were normalized to DMSO-treated group unless stated otherwise.
We developed a protocol that maximizes the generation of pluripotent stem cell-derived SAN pacemaker lineages (PSC-SAN). […] We therefore applied GATA5-induced progenitors to an unbiased qRT-PCR-based chemical screen using annotated pathway modulating compounds to identify modulators that further enhance the expression of TTS and specification toward pacemaker lineage. […]
A general note: Real-time PCR tracks product formation cycle by cycle.

Take `COc1cccc2c1C(=O)c1c(O)c3c(c(O)c1C2=O)C[C@@](O)(C(=O)CO)C[C@@H]3O[C@H]1C[C@H](N)[C@H](O)[C@H](C)O1` [Doxorubicin]: the “cell death (percentage of cleaved caspase3+ cells)” value in series [1] was “no significant increase in cell death”. Also, in the series with murine SAN (1 μM doxorubicin, 3 hrs), the “SAN cell death in atrial explants” value is recorded as “localized SAN cell death” and the “contractility of atrial explants” value is recorded as “irregular contractility”. Further, in the series with murine SAN (1.5 μM Doxorubicin), the “contraction rhythmicity of explants (COV)” value is recorded as “irregular contractions marked by significantly higher variance in the time between contractions”. In addition, in the series on HCN4+ SAN cells, the “variance in the time between contractions (coefficient of variance, COV)” value is “significantly higher variance in the time between contractions”. The “cytotoxicity (percentage of cleaved caspase3+ cells)” value in series [2] is listed as “significant cytotoxicity”. The “DOXO-induced apoptosis rate compared to DMSO-treated cells” value in series [3] (14 high-sensitive iPSC lines) was “greater than 4 fold”. Besides, the increased toxicity result in series [3] (all 4 lines carrying the risk allele of rs1056892) is recorded as “greater than 4 fold”. The “percentage of cleaved caspase3+ ISL1 cells following DOXO” value in series [3] (hPSC-SAN cells from all 48 iPSC lines) was “at least some increase”. Also, in the series with A549 xenograft tumors, the “tumor burden / growth (tumor wt. and volume), single agent” value was “reduction in tumor wt. and volume”. Further, the sub-clinical systolic dysfunction in series [4] (of treated patients) is about 40%. Further, the DOXO-induced cardiomyopathy in series [4] (treated patients) is listed as 10-20%.
Consider cucurbitacin, for which, in series [5], the “expression levels of nodal and atrial structural marker MYH6” value is listed as “enhances the expression levels”.
